The test system of series [1] is C5a-stimulated neutrophile. Put plainly: Migrating ability of C5a-stimulated neutrophile. Type of series: cell-based. The note with it: 1.5 h; human neutrophile, C5a 100 pmol/L, chemotaxicell, 90 min; read-out: IC50 value, inhibition of migration of C5a-stimulated neutrophile. The method, then: A neutrophile fraction was separately taken from human peripheral venous blood using Lympholyte-poly (Cedarlane) and suspended in RPMI 1640 medium (GIBCO BRL) supplemented with 0.1% bovine serum albumin (BSA). To this neutrophile fraction (5×10^6 cells/mL) was added Calcein-AM (final concentration 5 μM, FUNAKOSHI), and the mixture was incubated at 37° C. for 30 min. The cells were washed by centrifugation and suspended to a concentration of 1×10^6 cells/mL. The migration was evaluated by adding neutrophiles to chemotaxicell (pore size: 3 μm, KURABO) and measuring the neutrophiles that migrated outside the chemotaxicell. First, 100 pmol/L of C5a solution was added to 24 well plate (500 μL/well) and chemotaxicell was set in the well. […] The fluorescent intensity of each well was measured by Cyto Fluor II (Ex: 485, Em: 530). The rate (% inhibition) of the inhibition of migration of C5a-stimulated neutrophile by the test compound was calculated by the following formula, wherein the fluorescence intensity of neutrophile that migrated by C5a stimulation without addition of the test compound is Max, the fluorescent intensity of neutrophile that migrated without addition of test compound and without C5a stimulation is Min, and the fluorescent intensity of neutrophile that migrated by C5a stimulation with the addition of the test compound is Test. % inhibition=100−[(Test−Min)/(Max−Min)]×100 […]

In series [2] the test system is C5a stimulated neutrophile. Put plainly: Action on increase of intracellular Ca2+ concentration of C5a stimulated neutrophile. Type of series: cell-based, human. The method, then:
A neutrophile fraction was separately taken from human peripheral venous blood using Lympholyte-poly (Cedarlane), and suspended in Hank's Balanced Salt Solution (HBSS, GIBCO BRL) supplemented with 1% fetal bovine serum (FBS). Then, Fura 2-AM (final concentration 5 μM, DOJINDO) was added to the neutrophile fraction (5×10^6 cells/mL), and the mixture was incubated at 37° C. for 40 min. The cells were washed by centrifugation and suspended to the concentration of 1×10^6 cells/mL. The intracellular Ca^2+ concentration was measured using a spectrophotofluorometer (CAF-110, JASCO Corporation), and calculated from the ratio (Ex340 value/Ex380 value) of fluorescent intensities at 500 nm upon excitation at 340 nm and 380 nm, the former being Ex340 value, the latter being Ex380 value. […] Then, Triton X-100 (final concentration 0.2%) was added and the cells were dissolved, and, sb2 value, which was the Ex 340 value then, and Rmax value, which was the Ex340 value/Ex380 value then, was measured. Then, EGTA (final concentration 3 mmol/L) was added and sf2 value, which was the Ex340 value then, and Rmin value, which was the Ex340/Ex380 value then, was measured. From these measurement results, the intracellular Ca^2+ concentration was calculated from the following formula. […]

The subject of series [3] is C5a stimulated neutrophile. Put plainly: Production of reactive oxygen species in C5a-stimulated neutrophile. The note with it: human neutrophile, C5a 3 nmol/L, luminol luminescence; read-out: IC50 value, inhibition of production of reactive oxygen species in C5a stimulated neutrophile. Type of series: cell-based. The procedure:
A neutrophile fraction was separately taken from human peripheral venous blood using Lympholyte-poly (Cedarlane), and suspended in Hank's Balanced Salt Solution (HBSS, GIBCO BRL) containing 1% fetal bovine serum (FBS) and 1 mmol/L of luminol (Wako Pure Chemical Industries, Ltd.). Reactive oxygen species was measured using a luminometer (MicroLumat, Berthold) for 96 well plate. That is, 1×10^5 cells/150 μL of neutrophile suspension and 25 μL of a test compound solution were added to a well, which was set in a MicroLumat set for 37° C. and stood for about 5 min. Then, 25 μL of C5a (final concentration 3 nmol/L) was added and luminescence produced by the reaction of the luminol and the reactive oxygen species was measured with the lapse of time for 15 min. The rate (% inhibition) of inhibition of the production of reactive oxygen species in C5a stimulated neutrophile by the test compound was calculated by the following formula, wherein the peak value of the production of reactive oxygen species derived by C5a without addition of the test compound is Max, the peak value of the production of reactive oxygen species without addition of the test compound and without C5a stimulation is Min, and the peak value of the production of reactive oxygen species derived by C5a with the addition of the test compound is Test. % inhibition=100−[(Test−Min)/(Max−Min)]×100 […]

The target of series [4] is T1, C5a receptor (Homo sapiens, UniProt P21730).
T1 construct: U-937 cell was stimulated with 1 mM dibutyryl cyclic AMP (dcAMP, SIGMA) for 2 days to express the C5a receptor; endogenous in cells; host or cells: U-937 cells (human histiocytic lymphoma line) differentiated with 1 mM dibutyryl cAMP for 2 days
T1 sequence (P21730 1-350): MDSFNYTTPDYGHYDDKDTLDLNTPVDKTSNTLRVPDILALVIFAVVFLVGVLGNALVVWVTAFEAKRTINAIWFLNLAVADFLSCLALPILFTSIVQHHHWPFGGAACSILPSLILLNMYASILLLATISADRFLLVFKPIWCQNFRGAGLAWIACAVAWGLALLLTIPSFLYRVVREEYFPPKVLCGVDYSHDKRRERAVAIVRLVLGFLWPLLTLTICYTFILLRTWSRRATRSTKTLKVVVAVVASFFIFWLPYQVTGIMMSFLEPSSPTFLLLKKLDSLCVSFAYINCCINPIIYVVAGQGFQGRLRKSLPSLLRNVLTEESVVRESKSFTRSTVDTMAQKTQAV
The series is described as follows: C5a receptor binding assay ([125I]-human C5a, dcAMP-U-937 cells). To be noted: dcAMP-U-937 cell, [125I]-C5a 200 pM, 4° C. for 2 hr; read-out: IC50 value, concentration at which binding of [125I]-human C5a is inhibited by 50%. The procedure:
The C5a receptor binding inhibitory action of C5a and the test compound was evaluated by a receptor binding assay comprising reacting human cell line U-937 (human histiocytic lymphoma line), which expresses the C5a receptor, with [^125I]-human C5a (Amersham Pharmacia Biotech) in a MultiScreen (MILLIPORE). First, U-937 cell was stimulated with 1 mM dibutyryl cyclic AMP (dcAMP, SIGMA) for 2 days to express the C5a receptor (dcAMP-U-937 cell), and suspended in a binding buffer [50 mM HEPES, 1 mM CaCl2, 5 mM MgCl2, 0.5% bovine serum albumin (BSA, SIGMA), 0.02% NaN3 (pH 7.2)] and stored at −80° C. The binding assay was started by the addition of 50 μL of dcAMP-U-937 cell suspension dissolved immediately before use, 25 μL of a binding buffer or a test compound solution, and 25 μL of [^125I]-C5a solution (final concentration 200 pM), to each well of the MultiScreen. […] After drying the MultiScreen, the radioactivity on the filter was measured using a gamma counter. The rate (% inhibition) of inhibition of C5a binding by the test compound was calculated by the following formula using the count value obtained without addition of the test compound as Total, the count value obtained with addition of non-labeled C5a as Non, and the count value obtained with addition of the test compound as Test. % Inhibition=100−[(Test−Non)/(Total−Non)]×100 […]

Series [5] relates to C5a-Induced Decrease in Neutrophile in Cynomolgus Monkey. Put plainly: C5a-induced decrease in neutrophile in cynomolgus monkey. Type of series: in vivo. The note with it: 30 mg/kg orally, human C5a administered 4 hr later. The procedure: The action of the test compound on the decrease of neutrophile in peripheral blood, that occurs temporarily upon intravenous administration of human C5a to cynomolgus monkey, was evaluated. That is, the test compound was orally administered to cynomolgus monkey, and 4 hr later, human C5a was administered. The neutrophiles in peripheral blood were counted 2 min before and 1 min after administration of human C5a, and the rate (%) of decrease in neutrophiles in peripheral blood was calculated by the following formula. decrease rate (%)=100−[(neutrophiles in peripheral blood 1 min after administration of human C5a)/(neutrophiles in peripheral blood 2 min before administration of human C5a)]×100
Using the following formula, moreover, the inhibition rate (% inhibition) of decrease in neutrophiles in peripheral blood by the test compound was calculated. % inhibition=100−[(Test−Min)/(Max−Min)]×100 • Test: decrease rate of neutrophiles in peripheral blood when test compound and human C5a were administered • Min: decrease rate of neutrophiles in peripheral blood upon administration of administration medium for test compound and administration medium for human C5a • Max: decrease rate of neutrophiles in peripheral blood upon administration of administration medium for test compound and human C5a

Where a name gives a salt, the structure may show the parent alone.

In general, melting point refers to the temperature of the solid-liquid transition.

Compound `CC(C)c1ccc(N(Cc2ccc(N(C)C)cc2)C(=O)Nc2c(C(C)C)cccc2C(C)C)cc1` (as salt: fumarate) [Example 34, N′-(2,6-diisopropylphenyl)-N-[(4-dimethylaminophenyl)methyl]-N-(4-isopropylphenyl)urea 9/10 fumarate] gave a melting point of 203 to 206 °C.

For the compound `CC(C)c1cccc(C(C)C)c1NC(=O)N(Cc1ccc(N(C)C)cc1)c1ccc(F)cc1` [Example 1, N′-(2,6-diisopropylphenyl)-N-[(4-dimethylaminophenyl)methyl]-N-(4-fluorophenyl)urea], the melting point lay within 124 to 125 °C.

Turning to `CC(C)c1ccc(N(Cc2ccc(N(C)C)cc2)C(=O)Nc2c(C(C)C)cccc2C(C)C)cc1` [Example 34, N′-(2,6-diisopropylphenyl)-N-[(4-dimethylaminophenyl)methyl]-N-(4-isopropylphenyl)urea 9/10 fumarate], the IC50 in series [1] came to 100 nM; in series [2] (human peripheral blood neutrophile, recombinant human C5a 100 pmol/L, Fura 2-AM, read-out: IC50 value, inhibition of increase in intracellular Ca2+ concentration of C5a-stimulated neutrophile) it was 5 nM; in series [3], 10 nM; in series [4], 100 nM. Besides, in series [2] (compound 10 μmol/L, human neutrophile), the “agonistic action (increase in intracellular Ca2+ induced by the compound)” value is “not found”.

In the case of `CC(C)c1ccc(N(Cc2ccc(Br)cc2)C(=O)Nc2c(C(C)C)cccc2C(C)C)cc1` [Example 53, N-[(4-bromophenyl)methyl]-N′-(2,6-diisopropylphenyl)-N-(4-isopropylphenyl)urea], in series [5], the “% inhibition of decrease in neutrophiles in peripheral blood” value was determined as 74%.

For the compound `CC(C)c1ccc(N(Cc2cnn(Cc3ccc(C(F)(F)F)cc3)c2)C(=O)Nc2c(C(C)C)cccc2C(C)C)cc1` [Example 61, N′-(2,6-diisopropylphenyl)-N-(4-isopropylphenyl)-N-{[1-(4-trifluoromethylbenzyl)pyrazol-4-yl]methyl}urea], the melting point was in the range of 134 to 135 °C.

The record behind these values is patent US7105567B2, “3-substituted urea derivatives and medicinal use thereof” (Mitsubishi Pharma Corporation, priority 2000, dated 2006).
